Reference: patent US20070244190A1, “Neobritannilactone B and acetyl neobritannilactone B” (priority 2006, published 2007)

Experiments:
HT-29 cells [1] = assay: Apoptosis (sub-G1) by flow cytometry; assay type: cell-based, human; settings: 24 h, mean ± SE
Method: (§1) Cell Culture and Chemicals. The COLO 205 and HT 29 cell lines were isolated from human colon adenocarcinoma (ATCC CCL-222 and HTB-38); human promyelocytic leukemia (HL-60) cells were obtained from American Type Culture Collection (Rockville, Md.). The human AGS gastric carcinoma cell lines (CCRC 60102) were obtained from the Food Industry Research and Development Institute (Hsinchu, Taiwan). Cell lines were grown at 37° C. in 5% CO2 dioxide atmosphere in RPMI for COLO 205, HT-29, and HL-60 cells and DMEM/F12 for AGS cells, all supplemented with 10% heat-inactivated fetal bovine serum (GIBCO BRL, Grand Island, N.Y.) (100 units/mL of penicillin, 100 μg/mL of streptomycin), and 2 mM L-glutamine (GIBCO BRL). Selected compounds were dissolved in dimethyl sulfoxide (DMSO). Propidium iodide was obtained from Sigma Chemical Co. (St. Louis, Mo.).
(§2) Flow Cytometry. Human cancer cells (2×10^5) were cultured in 60-mm Petri dishes and incubated for 24 h. The apoptotic cells (sub-G1) in the selected compounds and treated cells were measured by flow cytometry analysis. Then cells were harvested, washed with PBS, resuspended in 200 μL of PBS, and fixed in 800 μL of iced 100% ethanol at −20° C. After being left to stand overnight, the cell pellets were collected by centrifugation, resuspended in 1 mL of hypotonic buffer (0.5% Triton X-100 in PBS and 0.5 μg/mL RNase), and incubated at 37° C. for 30 min. Then 1 mL of propidium iodide solution (50 μg/mL) was added and the mixture was allowed to stand on ice for 30 min. Fluorescence emitted from the propidium iodide-DNA complex was quantitated after excitation of the fluorescent dye by FACScan cytometry (Becton Dickinson, San Jose, Calif.).
(§3) The compounds isolated from Inula were tested for their effects on the apoptotic ratio in human cancer cells.

HL-60 cells [2] = assay: Apoptosis (sub-G1) by flow cytometry; assay type: cell-based, human; settings: 24 h, mean ± SE
Method: as §1, §2, §3

AGS cells [3] = assay: Apoptosis (sub-G1) by flow cytometry; assay type: cell-based, human; settings: 24 h, mean ± SE
Method: as §1, §2, §3

COLO 205 cells [4] = assay: Apoptosis (sub-G1) by flow cytometry; assay type: cell-based, human; settings: 24 h, mean ± SE
Method: as §1, §2, §3

HT-29 cells [5] = assay: Cell viability, trypan blue exclusion, 24 h; assay type: cell-based; settings: HT-29, 24 h, mean ± SE, n=3, read-out: IC50, growth of human cancer cells
Method: as §1
(§4) Determination of Cell Viability. Human cancer cells were treated either with DMSO (0.01%) or the selected compounds (5-100 μM). Cell viability was determined at 24 h based on trypan blue exclusion assay. The viability percentage was calculated based on the percentage of unstained cells. Suspensions of cells were diluted 1:1 with 0.5% trypan blue solution. Stained and unstained cells were counted in a hemocytometer.

HL-60 cells [6] = assay: Cell viability, trypan blue exclusion, 24 h; assay type: cell-based; settings: HL-60, 24 h, mean ± SE, n=3, read-out: IC50, growth of human cancer cells
Method: as §1, §4

AGS cells [7] = assay: Cell viability, trypan blue exclusion, 24 h; assay type: cell-based; settings: mean ± SE, n=3, read-out: IC50, growth of human cancer cells
Method: as §1, §4

COLO 205 cells [8] = assay: Cell viability, trypan blue exclusion, 24 h; assay type: cell-based; settings: COLO 205, 24 h, mean ± SE, n=3, read-out: IC50, growth of human cancer cells
Method: as §1, §4

[9] = tested on: human AGS gastric carcinoma cell lines; assay: Cell survival assay (Example 3), trypan blue exclusion; assay type: cell-based; settings: 24 h treatment, Example 3, FIG. 2, read-out: IC50, cell viability
Method: Cell Survival Assay. The human AGS gastric carcinoma cell lines (CCRC 60102) were maintained as described in Section 8.2 above. For assays, cells (5×10^4) were plated in 35-mm Petri dishes. The next day, the medium was changed and NAB and ANAB were added. Control cells were treated with DMSO to a final concentration of 0.05% (v/v). At the end of incubation, cells were harvested for cell count using a hemocytometer.
To test the effects of NAB and ANAB on cell viability, human gastric carcinoma cells were treated with different concentrations of NAB and ANAB. After 24 h treatment, the number of live cells was determined by trypan blue exclusion assay. FIG. 2. Both compounds were potent inhibitors of cell viability.

AGS cells [10] = assay: Sub-G1 flow cytometry (Example 3); assay type: cell-based, human; settings: 24 h, FIG. 3
Method: as §2, with “AGS” for “Human cancer”, “The” for “The apoptotic cells (sub-G1) in the selected compounds and treated”, “then” for “measured by flow cytometry analysis. Then cells were”, “Next,” for “Then”, “added,” for “added”
The cytotoxic effects of NAB and ANAB in AGS cells were analyzed to assess their consistency with the specific changes that characterize apoptosis, such as DNA fragmentation. To investigate the induction of a sub-G1 cell population, the DNA content of AGS cells treated with various concentrations of NAB and ANAB was analyzed by flow cytometry. Cells were treated with NAB and ANAB, and stained with propidum iodide.

SMILES | apoptotic ratio (HT-29 cells [1]; HT-29, 5 μM) | apoptotic ratio (HT-29 cells [1]; HT-29, 10 μM) | apoptotic ratio (HT-29 cells [1]; HT-29, 25 μM) | apoptotic ratio (HT-29 cells [1]; HT-29, 50 μM) [%] | apoptotic ratio (HT-29 cells [1]; HT-29, 100 μM) [%] | apoptotic ratio (HL-60 cells [2]; HL-60, 5 μM) [%] | apoptotic ratio (HL-60 cells [2]; HL-60, 10 μM) [%] | apoptotic ratio (HL-60 cells [2]; HL-60, 25 μM) [%] | apoptotic ratio (HL-60 cells [2]; HL-60, 50 μM) [%] | apoptotic ratio (HL-60 cells [2]; HL-60, 100 μM) | apoptotic ratio (AGS cells [3]; 5 μM) [%] | apoptotic ratio (AGS cells [3]; 10 μM) [%] | apoptotic ratio (AGS cells [3]; 25 μM) [%] | apoptotic ratio (AGS cells [3]; 50 μM) [%] | apoptotic ratio (AGS cells [3]; 100 μM) [%] | apoptotic ratio (COLO 205 cells [4]; COLO 205, 5 μM) [%] | apoptotic ratio (COLO 205 cells [4]; COLO 205, 10 μM) [%] | apoptotic ratio (COLO 205 cells [4]; COLO 205, 25 μM) [%] | apoptotic ratio (COLO 205 cells [4]; COLO 205, 50 μM) [%] | apoptotic ratio (COLO 205 cells [4]; COLO 205, 100 μM) [%] | also measured
C=C1C(=O)OC2C=C(C)CCC=C(C)CC(O)C12 (stereo not drawn) [Compound 3, 4-hydroxy-3α,4,5,8,9,11α-hexahydro-6,10-dimethyl-3-methylene-cyclodeca[b]furan-2(3H)-one] | 13.58 ± 0.87% | 24.46 ± .88% | 66.54 ± 1.58% | 82.27 ± 1.68 | 87.02 ± 0.30 | 9.82 ± 1.90 | 21.93 ± 2.81 | 77.57 ± 7.06 | 96.94 ± 0.57 | 98.29 ± 0.15% | 9.55 ± 3.05 | 8.66 ± 0.80 | 11.78 ± 1.40 | 15.95 ± 1.12 | 19.22 ± 0.57 | 10.73 ± 2.31 | 14.12 ± 1.06 | 41.62 ± 6.34 | 89.11 ± 1.47 | 96.81 ± 0.51 | apoptotic ratio (HT-29 cells [1]; HT-29, 25 μM, listed as NAB): 66.54%; apoptotic ratio (HL-60 cells [2]; HL-60, 25 μM, listed as NAB): 77.54%; apoptotic ratio (AGS cells [3]; 25 μM, listed as NAB): 11.78%; apoptotic ratio (COLO 205 cells [4]; COLO 205, 25 μM, listed as NAB): 41.62%; IC50 (HT-29 cells [5]): 56.1 µM; IC50 (HL-60 cells [6]): 27.4 µM; IC50 (AGS cells [7]): 21.4 µM; IC50 (COLO 205 cells [8]): 14.3 µM; IC50 [9]: 7.6 µM; percentage of apoptotic AGS cells (AGS cells [10]; 5 μM): 14%; percentage of apoptotic AGS cells (AGS cells [10]; 10 μM): 27%; percentage of apoptotic AGS cells (AGS cells [10]; 15 μM): 63%; percentage of apoptotic AGS cells (AGS cells [10]; 25 μM): 86%
C=C1C(=O)O[C@H]2/C=C(\C)CC/C=C(\C)C[C@H](OC(C)=O)[C@@H]12 [Compound 4, acetyl neobritannilactone B] | 20.38 ± .17% | 47.56 ± 0.00% | 69.70 ± .22% | 81.43 ± 1.46 | 82.47 ± 2.06 | 22.93 ± 1.34 | 39.71 ± 2.85 | 95.17 ± 1.61 | 97.74 ± 0.44 | 98.05 ± .30% | 6.16 ± 1.17 | 7.87 ± 3.03 | 9.89 ± 4.44 | 13.64 ± 0.28 | 43.11 ± 0.99 | 15.47 ± 1.69 | 34.72 ± 2.72 | 76.87 ± 2.39 | 96.92 ± 0.20 | 98.66 ± 0.10 | apoptotic ratio (HT-29 cells [1]; HT-29, 25 μM, listed as ANAB): 69.70%; apoptotic ratio (HL-60 cells [2]; HL-60, 25 μM, listed as ANAB): 95.17%; apoptotic ratio (AGS cells [3]; 25 μM, listed as ANAB): 9.89%; apoptotic ratio (COLO 205 cells [4]; COLO 205, 25 μM, listed as ANAB): 76.87%; IC50 (HT-29 cells [5]): 57 µM; IC50 (HL-60 cells [6]): 16.2 µM; IC50 (AGS cells [7]): 5.4 µM; IC50 (COLO 205 cells [8]): 14.7 µM; IC50 [9]: 4.2 µM; percentage of apoptotic AGS cells (AGS cells [10]; 5 μM): 24%; percentage of apoptotic AGS cells (AGS cells [10]; 10 μM): 64%; percentage of apoptotic AGS cells (AGS cells [10]; 15 μM): 81%; percentage of apoptotic AGS cells (AGS cells [10]; 25 μM): 92%
